From PMC2655646, “A Conserved Mechanism for Control of Human and Mouse Embryonic Stem Cell Pluripotency and Differentiation by Shp2 Tyrosine Phosphatase” (PLoS ONE, 2009)

Legend:
Shp2 = target: T1, Shp2 (Mus musculus, UniProt P35235); experiment: pNPP phosphatase assay with purified GST-PTP domain, absorbance at […] nm; Ki also determined ([…]); assay type: biochemical
T1 construct: gene Ptpn11; GST-tagged PTP domain
T1 sequence (P35235 247-521 limits assumed): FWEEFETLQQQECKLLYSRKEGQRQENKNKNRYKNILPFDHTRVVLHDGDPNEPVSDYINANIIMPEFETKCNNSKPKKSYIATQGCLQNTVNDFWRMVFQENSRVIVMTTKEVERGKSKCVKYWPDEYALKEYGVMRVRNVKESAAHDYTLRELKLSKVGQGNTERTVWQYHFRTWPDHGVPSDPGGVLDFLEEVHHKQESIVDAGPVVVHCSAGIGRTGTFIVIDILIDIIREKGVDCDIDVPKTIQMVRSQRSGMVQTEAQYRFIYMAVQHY

Shp1 = target: T2, Shp1 (Mus musculus, UniProt P29351); experiment: phosphatase inhibition assay with purified GST-PTP domain; assay type: biochemical
T2 construct: gene Ptpn6; GST-tagged PTP domain
T2 sequence (P29351 244-515 limits assumed): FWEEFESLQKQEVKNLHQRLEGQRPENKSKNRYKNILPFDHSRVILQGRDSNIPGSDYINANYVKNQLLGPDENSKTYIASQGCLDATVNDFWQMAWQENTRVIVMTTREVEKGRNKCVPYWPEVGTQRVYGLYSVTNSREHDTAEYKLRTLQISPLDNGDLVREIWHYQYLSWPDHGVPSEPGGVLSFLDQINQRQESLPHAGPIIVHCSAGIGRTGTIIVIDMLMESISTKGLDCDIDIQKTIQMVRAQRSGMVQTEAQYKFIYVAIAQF

`O=C(O)c1cc(O)c(=O)c2c(O)c(O)ccc2c1` [DCA, 7-deshydroxypyrogallin-4-carboxylic acid] showed an IC50 (Shp2) of 2100 nM and an IC50 (Shp1) of 2300 nM.
